Data: US20220257500A1, “USE OF A HYDRO-ALCOHOLIC EXTRACT OF EVENING PRIMROSE FOR HYDRATING SKIN AND INCREASING BARRIER FUNCTION” (L'OREAL, priority 2019, published 2022)

What was measured:
Assay type in all cases: cell-based
Conditions in all cases: normal human epidermal keratinocytes, 24 h, normalised to GAPDH
[1] = system: CNFN (cornifelin); assay: RT-qPCR analysis of gene expression, CNFN transcript
Description: (§1) Normal, human epidermal keratinocytes were used to conduct the study. Normal, human epidermal keratinocytes were seeded in 48-well culture plates and cultured in culture medium for 3 days at 37° C. under 5% CO2 with renewal of the culture medium after the first 24 hours of culture. After incubation, the culture medium was replaced by test medium (supplemented with 1.5 mM CaCl2) containing or not containing (control) the compounds to be tested, and the cells were incubated for 24 hours. All conditions were performed with n=2. After treatment, the culture media were removed and the cells rinsed twice with PBS (w/o CaCl2, w/o MgCl2). Total RNAs were isolated using a magnetic bead extraction kit, following the manufacturer's instructions (MagMAX™-96 Total RNA Isolation Kit, Ambion). Quantification of RNAs and quality control thereof were analysed using Labchip GX (Perkin Elmer). Expression of the selected transcripts was analysed by two-step quantitative PCR. First, the cDNAs were retro-transcribed from the RNAs using the Quantitect® Reverse transcription kit (QIAGEN) following the manufacturer's instructions. The quantitative PCR experiments were performed using a LightCycler® 480 Real-Time PCR System in 384-well plate (Roche) following the incorporation technique of SYBR®Green (Roche) (Table 4). The results are expressed as fold change (Fc) as compared with the non-treated control, after normalising relative expressions in relation to expression of a housekeeping gene (GAPDH). The expression of a gene is considered to be stimulated when it is multiplied at least by 1.5.

[2] = system: LCE3D (late cornified envelope 3D); assay: RT-qPCR analysis of gene expression, LCE3D transcript
Description: as §1

[3] = system: FLG2 (filaggrin 2); assay: RT-qPCR analysis of gene expression, FLG2 transcript
Description: as §1

[4] = system: SPRR1A (small proline-rich protein 1A); assay: RT-qPCR analysis of gene expression, SPRR1A transcript
Description: as §1

Compound	CNFN Fold change vs Control (Fc) ([1]; 0.004 mg/mL) [fold change]	LCE3D Fold change vs Control (Fc) ([2]; 0.004 mg/mL) [fold change]	FLG2 Fold change vs Control (Fc) ([3]; 0.004 mg/mL) [fold change]	SPRR1A Fold change vs Control (Fc) ([4]; 0.004 mg/mL) [fold change]	CNFN Fold change vs Control (Fc) ([1]; 0.1 mg/mL) [fold change]	LCE3D Fold change vs Control (Fc) ([2]; 0.1 mg/mL) [fold change]	FLG2 Fold change vs Control (Fc) ([3]; 0.1 mg/mL) [fold change]	SPRR1A Fold change vs Control (Fc) ([4]; 0.1 mg/mL) [fold change]
O=c1oc2c(O)c(O)cc3c(=O)oc4c(O)c(O)cc1c4c23 [Ellagic acid, ellagic acid]	0.64	0.51	1.22	0.96				
O=c1c(O[C@@H]2O[C@H](CO)[C@H](O)[C@H](O)[C@H]2O)c(-c2ccc(O)c(O)c2)oc2cc(O)cc(O)c12 [Hyperoside, hyperoside]					0.61	0.61	0.5	0.64
O=c1c(O[C@@H]2O[C@H](CO)[C@@H](O)[C@H](O)[C@H]2O)c(-c2ccc(O)c(O)c2)oc2cc(O)cc(O)c12 [Isoquercitrin, isoquercitrin]					0.54	0.47	0.9	0.57
O=C(O)[C@H]1O[C@@H](Oc2cc(O)c3c(=O)cc(-c4ccc(O)c(O)c4)oc3c2)[C@H](O)[C@@H](O)[C@@H]1O [Luteoline-7-O-glucuronide, luteoline-7-O-glucuronide]					0.42	0.44	0.4	0.41
O=c1c(O)c(-c2ccc(O)c(O)c2)oc2cc(O)cc(O)c12 [Quercetin, quercetin]					0.13	0.2	0.12	0.13
oenothein B	0.76	0.87	1.36	1.07				
